Like-named read-outs stand apart in the source and are kept apart here.
Key:
[1] = test system: T. cruzi epimastigotes (CL Brener strain); test: In vitro activity against epimastigotes of T. cruzi (alamar Blue); type: cell-based, Trypanosoma cruzi; settings: for IC50: Trypanosoma cruzi, 24 h, read-out: IC50 Epimastigotes T. cruzi ± SD
[2] = test system: T. cruzi trypomastigotes (CL Brener strain); test: In vitro activity against cell-derived trypomastigotes of T. cruzi (alamar Blue); type: cell-based, Trypanosoma cruzi; settings: for IC50: Trypanosoma cruzi, 24 h, read-out: IC50 Trypomastigotes T. cruzi ± SD
[3] = test system: VERO cells; set-up: method as in doi:10.1039/C9NJ02589H; settings: ref [42], read-out: IC50 VERO ± SD; cited from earlier work
[4] = test system: calf thymus DNA (ctDNA); test: Competitive binding to {DNA-EB} adduct by fluorescence; settings: ctDNA 1.5 μM, EB 0.75 μM, 10 mM Tris-HCl pH 7.4, DMSO ≤5% v/v
Protocol: Experiments for competitive binding to calf thymus DNA (ctDNA, SIGMA, Type I, No. D-1501, St. […] Millipore water was used for the preparation of solutions of the complexes for the studies and for buffer solution. Fluorescence measurements were performed as titration using a fixed concentration of ctDNA and EB while gradually increasing the concentration of the [V^VO(IN-2H)(L2-H)] complex, L2 and IN free ligands. ctDNA stock solutions were prepared by hydrating ctDNA in Tris-HCl buffer (1 mg mL^−1, ~2 mM nuc^−1). This solution was allowed to stand at 4 °C. The concentration of the stock solution was determined by UV spectrophotometry using the molar absorption coefficient ε (260 nm) = 6600 M^−1cm^−1nuc^−1 [76]. An EB 0.5 mM solution was prepared in Tris-HCl buffer. Due to the low solubility of the complexes in aqueous media, DMSO was used to prepare concentrated stock solutions, followed by appropriate dilution. […] Fluorescence spectra were recorded from 540 nm to 680 nm at an excitation wavelength of 510 nm on a Shimadzu RF 5301 spectrofluorimeter (Kyoto, Japan) and in a 10.0 × 10.0 mm^2 quartz cuvette. Samples with only compounds and ctDNA (without EB) were used as blanks and subtracted from the sample spectra. […] KSV were determined from the plot of F0/F versus [Q].

[5] = test system: VERO cells; test: Cytotoxicity on VERO cells (MTT assay); type: cell-based, African green monkeys; settings: Primates, 24 h, read-out: IC50 VERO ± SD
Protocol: VERO cells. VERO cells (ATCC CCL81, Manassas, VA, USA) were used as mammalian cell model for testing unspecific cytotoxicity. This cell lineage was isolated from kidney epithelial cells from African green monkeys and is widely used for phenotypic screening of drugs as it is regarded as a normal cell derived from epithelial tissue.
Cells were cultured in RPMI medium (Gibco, Grand Island, NY, USA) supplemented with 10% heat inactivated fetal bovine serum, penicillin (100 units/mL) and streptomycin (100 µg/mL) at 37 °C in a humidified 5% CO2 incubator. For maintenance, confluent cells were washed with PBS, incubated for 3 min with trypsin-EDTA (Gibco), diluted and re-plated.
The compounds were initially dissolved in DMSO (stock concentration). […]
For the cytotoxicity assay, 10,000 cells per well were seeded in a 96-well plate in RPMI medium and were incubated at 37 °C in a 5% CO2 atmosphere. […] Cell viability was assessed using MTT (3-(4, 5-dimethylthiazolyl-2)-2, 5-diphenyltetrazolium bromide) assay, where MTT is reduced by metabolically active cells to generate reducing equivalents such as NADH and NADPH, resulting in the formation of an intracellular purple formazan which can be solubilized by the addition of DMSO. […] Plates were kept for 15 min with agitation and absorbance was measured at 570 nm in a Thermo Scientific Varioskan® Flash Multimode instrument (Waltham, MA, USA). […]

[6] = test system: Caenorhabditis elegans Bristol strain N2; test: In vivo toxicity on C. elegans (motility, viability, development); settings: C. elegans L4, 2 µM, positive control
Protocol: The wild-type Caenorhabditis elegans (C. elegans) Bristol strain N2 and Escherichia coli (E. coli) OP50 strain were obtained from the Caenorhabditis Genomics Center (Minneapolis, MN, USA). Worms were maintained under standard conditions at 20 °C on Nematode Growth Media (NGM) agar plates seeded with E. coli OP50 as a source of food as previously described. The method used to assess toxicity is based on worm motility according to previously described. Briefly, the locomotor activity recording system, WMicrotracker^TM ONE (PhylumTech, Santa Fe, Argentina) detects infrared microbeam interruptions. Synchronized L4 C. elegans worms were removed from culture plates and washed three times with M9 buffer (3 g KH2PO4; 6 g Na2HPO4; 5 g NaCl; 1 mL 1 M MgSO4 per liter) by centrifugation at 1000 g. Worms in M9 1% DMSO were plated in 96-well flat microtiter plates (Deltalab, Barcelona, Spain). Approximately 70 worms per well were seeded in 60 µL M9 buffer containing 1% DMSO and their basal movement was measured for 30 min to normalize the movement activity for each well at the beginning of the assay. Then, compound [V^VO(IN-2H)(L2-H)] dissolved in M9 buffer 1% DMSO was added to a final concentration range of 6.5–100 µM in a final volume of 100 µL per well. […] The motility using WMicrotracker^TM ONE was measured for 18 h. […]

Row | IC50 ([1]; CL Brener strain) [µM] | IC50 ([2]; CL Brener strain, cell-derived) [µM] | Compound | IC50 [3] [µM] | further results
1 | 3.68 ± 0.71 | 20.1 ± 2.86 | CC1CS(=O)(=O)CCN1/N=C/c1ccc([N+](=O)[O-])o1 (centres unmarked) [Nifurtimox] | 998 ± 90.6 | 
2 |  |  | Oc1cccc2cccnc12 [L0] | 10.1 ± 3.9 | IC50 [1]: 9.42 ± 2.23 µM; IC50 [2]: 0.47 ± 0.07 µM
3 | 2.58 ± 0.56 | 1.01 ± 0.73 | O=[N+]([O-])c1ccc(O)c2ncccc12 [L4] | 12.5 ± 4.5 | 
4 | 7.17 ± 1.07 | 2.25 ± 0.95 | Oc1c(Cl)cc(Cl)c2cccnc12 [L1, 5,7-dichloro-8-hydroxyquinolne] | 66.5 ± 13.1 | 
5 | 2.76 ± 0.52 | 0.4 ± 0.08 | Oc1c(I)cc(Cl)c2cccnc12 [L2, 5-chloro-7-iodo-8-hydroxyquinoline] | 64.7 ± 9.1 | log (KSV), Stern–Volmer constant for competitive binding to {DNA-EB} adduct [4]: 4.68
6 | 2.17 ± 0.35 | 1.1 ± 0.88 | Oc1c(I)cc(I)c2cccnc12 [L3] | 75.5 ± 16.3 | 
7 | > 20 | > 20 | O=C(N/N=C/c1c(O)ccc2ccccc12)c1ccncc1 [IN] |  | log (KSV), Stern–Volmer constant for competitive binding to {DNA-EB} adduct [4]: 4.29; activity on epimastigotes (in words) [1]: negligible activity; activity on trypomastigotes (in words) [2]: negligible activity; IC50 [5]: 22.6 ± 3.7 µM
8 |  |  | ivermectin |  | effect on worm motility [6]: reduced motility to zero

Reference: article PMC8433833, “Heteroleptic Oxidovanadium(V) Complexes with Activity against Infective and Non-Infective Stages of Trypanosoma cruzi” (Molecules, 2021)
